Measurements from patent US20100094053A1, “USE OF PERSONAL CARE COMPOSITION” (CONOPCO, INC., D/B/A UNILEVER, priority 2008, published 2010).

Assays:
[1] = target: T1, human recombinant CB1 receptor (Homo sapiens, UniProt P21554); experiment: CB1 receptor inhibition binding assay ([3H]-CP-55,940 displacement)
T1 construct: expressed in transfected cells; host or cells: HEK-293
Description: (§1) Ki values were calculated by applying the Cheng-Prusoff equation to the IC50 values (obtained by GraphPad) for the displacement of the bound radioligand by increasing concentrations of the test compound.

[2] = target: T2, human recombinant CB2 receptor (Homo sapiens, UniProt P34972); experiment: CB2 receptor inhibition binding assay ([3H]-CP-55,940 displacement); details: 0.084 nM [3H]-CP-55,940, 90 minutes at 30° C
T2 construct: expressed in transfected cells; host or cells: HEK-293
Description: as §1

[3] = system: histamine induced scalp itch; experiment: Clinical assessment of histamine induced scalp itch (histamine iontophoresis, half head study); assay type: in vivo, human; details: 1.5% v/v CMEA in ethanol, 30 μl patch on scalp for 24 h, then histamine iontophoresis
Description: Cocomonoethanolamide (CMEA) efficacy against itch was assessed using histamine iontophoresis. CMEA (1.5% v/v) was made up in 100% ethanol. The same concentration of ethanol was used as the vehicular control. A total of 31 subjects completed the randomised, double blind, half head clinical study. Volunteers were initially familiarised with the iontophoresis equipment and test protocol prior to study commencement. Following this phase, product application was commenced. Two sites were selected on each side of the head approximately halfway between the top of the ear and the apex of the head. An area of 2 cm^2 was carefully trimmed close to the scalp. Both the CMEA test solution and the ethanol control (30 μl each) were applied to a filter paper and placed in a 12 mm Finn chamber, which was attached the scalp with adhesive tape. Volunteers kept the patch in place for a period of 24 h. The chambers were then removed from the scalp and each application site received a histamine challenge via iontophoresis. Subjects scored perceived itch throughout the procedure by sliding an indicator up or down a Visual Analogue Score (VAS; calibrated in gradient fashion from 0 (none) to 100% (extremely intense)) to indicate itch intensity in real time. Data are expressed as the mean area under the curve+/−S.E. (standard error of the mean).

T1 sequence (P21554 whole entry): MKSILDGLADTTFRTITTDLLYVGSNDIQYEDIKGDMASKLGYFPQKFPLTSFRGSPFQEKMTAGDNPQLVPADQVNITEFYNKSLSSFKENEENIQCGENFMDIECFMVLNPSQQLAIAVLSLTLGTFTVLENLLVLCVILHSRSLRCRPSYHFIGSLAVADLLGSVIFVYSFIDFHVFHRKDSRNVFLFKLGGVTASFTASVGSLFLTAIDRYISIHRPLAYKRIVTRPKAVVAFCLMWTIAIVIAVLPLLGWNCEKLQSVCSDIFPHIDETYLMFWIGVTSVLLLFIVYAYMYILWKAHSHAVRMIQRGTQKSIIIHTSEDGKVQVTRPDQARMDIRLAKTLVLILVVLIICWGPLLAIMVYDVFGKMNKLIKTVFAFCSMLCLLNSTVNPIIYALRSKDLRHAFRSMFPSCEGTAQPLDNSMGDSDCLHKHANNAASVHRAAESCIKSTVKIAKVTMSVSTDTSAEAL
T2 sequence (P34972 whole entry): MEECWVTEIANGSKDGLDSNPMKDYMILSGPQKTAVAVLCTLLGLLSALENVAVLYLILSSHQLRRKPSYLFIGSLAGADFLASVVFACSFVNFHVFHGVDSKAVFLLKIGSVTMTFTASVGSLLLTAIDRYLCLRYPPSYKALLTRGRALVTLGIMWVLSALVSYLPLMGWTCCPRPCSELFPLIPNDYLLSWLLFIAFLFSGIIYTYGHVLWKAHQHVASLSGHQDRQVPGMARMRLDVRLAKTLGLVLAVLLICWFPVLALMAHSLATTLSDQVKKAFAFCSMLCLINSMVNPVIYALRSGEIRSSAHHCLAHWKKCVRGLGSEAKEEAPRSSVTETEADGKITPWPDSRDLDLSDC

With Cocomonoethanolamide [CMEA] the “IC50 for displacement of [3H]-CP-55,940 at CB1 receptor” value ([1]; HEK-293 cells transfected with human recombinant CB1 receptor, 0.14 nM [3H]-CP-55,940, 90 minutes at 30° C) was 5.08 µg/mL, the “Ki at CB1 receptor” value ([1]; calculated by Cheng-Prusoff equation from IC50, 0.14 nM [3H]-CP-55,940, 90 minutes at 30° C) was 2.85 µg/mL and the “binding affinity, CB1R compared with CB2R” value ([1]; comparison of CB1 and CB2 binding data) was “higher for the CB1R than for CB2R”. The “IC50 for displacement of [3H]-CP-55,940 at CB2 receptor” value ([2]; HEK-293 cells transfected with human recombinant CB2 receptor) was 8.19 µg/mL, the “Ki at CB2 receptor” value ([2]; calculated by Cheng-Prusoff equation from IC50) was 6.44 µg/mL and the “Visual Analogue Score (area under the curve; mean +/− S.E.M.)” value ([3]; 31 subjects) was 74942 (9625). The “reduction of perceived scalp itch” value ([3]; versus ethanol control, P<0.02) was 16.6%.
